Measurements: patent US20240140991A1, “ANTIBIOTIC NATURAL PRODUCT ANALOGUES” (THE QUEEN'S UNIVERSITY OF BELFAST, priority 2021, published 2024)
In brackets after ≈: the same amount, converted by molar mass. Starred links: 1 amine or outer side, 2 acyl side, 3 side chain; linkers in the order of their positions; H or OH if unused. Positions of bridges follow the written chain, without caps; N, C: chain ends. Non-standard residues stand in square brackets, D forms with d. Residues, ends and D or L forms follow the SMILES beside them. ξ: configuration not given here. *: point of attachment. X1 = C[C@@H](N=[N+]=[N-])[C@H](N[*:1])C(=O)[*:2]; Octanoyl(7-Me) = CC(C)CCCCCC(=O)*; Hexanoyl(4ξ-Me) = CCC(C)CCC(=O)*; dOrn = NCCC[C@@H](N)C(=O)O; Orn = NCCC[C@H](N)C(=O)O; Dap = NC[C@H](N)C(=O)O; Alloc = C=CCOC(=O)*

Tested on: Escherichia coli ATCC 25922
Assay type: cell-based
Conditions: ATCC 25922
Protocol: Minimum inhibitory concentration (MIC) was determined by broth microdilution according to CLSI guidelines. Blood agar plates were inoculated with glycerol stocks of Escherichia coli ATCC 25922, E. coli ATCC 25922 MCR-1, E. coli MCR-1 (clinical isolate from Utrecht Medical Center, NL), E. coli EQAS MCR-2 (clinical isolate from Wageningen University and Research, NL), Kiebsielia pneumoniae ATCC 11228, K. pneumoniae ATCC 13883, K. pneumonia 2048 (clinical isolate from Vrije Universiteit Amsterdam Medical Center, NL), K. pneumonia JS-123 (clinical isolate from Utrecht Medical Center, NL), Acinetobacter baumannii ATCC 17961, A. baumannil ATCC 17978, A. baumannii 2018-006 (clinical isolate from Rijksinstituut voor Volksgezondheid en Milieu, NL), A. baumannii MDR (clinical isolate from Vrije Universiteit Amsterdam Medical Center, NL), Pseudomonas aeruginosa ATCC 27853, P. aeruginosa PAO1, P. aeruginosa NRZ-03961 (Reference strain from Das Nationale Referenzzentrum für gramnegative Krankenhauserreger, DE), P. aeruginosa M-120 (clinical isolate from Leiden University Medical Center, NL) and Staphylococcus aureus USA300 (clinical isolate from Texas Children's Hospitalm, USA). E. coli 25922 MCR1 was grown on LB agar supplemented with kanamycin. The inoculated agar plates were then incubated for 16 hours at 37° C. Individually grown colonies were subsequently used to inoculate 3 mL aliquots of TSB that were then incubated at 37° C. with shaking at 220 rpm. In parallel, the compounds to be assessed were serially diluted with Mueller-Hinton broth (MHB) in polypropylene 96-well plates (50 μL in each well). Once the OD600 of the bacterial suspensions reached 0.5, the bacteria were diluted with MHB (final concentration 2×10^5 CFU mL^−1) and added to the microplates containing the test compounds (50 μL to each well, final volume: 100 μL). The well-plates were sealed with an adhesive membrane and after 16 hours of incubation at 37° C. with shaking at 220 rpm the wells were visually inspected for bacterial growth. MIC values were defined as the lowest concentration of the compound that prevented visible growth of bacteria.

SMILES	Minimum inhibitory concentration (MIC) [µg/mL]
CC[C@H](C)[C@H](NC(=O)[C@@H](NC(=O)[C@H](Cc1c[nH]c2ccccc12)NC(=O)[C@@H](CCCN)NC(=O)CNC(=O)[C@H](CCCN)NC(=O)[C@@H](CCCN)NC(=O)[C@@H](Cc1c[nH]c2ccccc12)NC(=O)[C@@H](Cc1ccc(O)cc1)NC(=O)[C@@H](CO)NC(=O)CCCCCC(C)C)[C@@H](C)O)C(=O)N[C@@H](C)C(=O)NCC(=O)NCC(N)=O [Ala11 (Asn→Ala), FA-sywoOGoWTIAGG-CONH2] ({Octanoyl(7-Me)}-[dS][dY][dW][dOrn][Orn]G[dOrn]WTIAGG-NH2)	16 (≈ 10.1 µM)
CC[C@H](C)[C@@H]1NC(=O)[C@@H](NC(=O)[C@H](Cc2c[nH]c3ccccc23)NC(=O)[C@@H](CCCN)NC(=O)CNC(=O)[C@H](CCCN)NC(=O)[C@@H](CCCN)NC(=O)[C@@H](Cc2c[nH]c3ccccc23)NC(=O)[C@@H](Cc2ccc(O)cc2)NC(=O)[C@@H](CO)NC(=O)CCCCCC(C)C)[C@@H](C)OC(=O)CNC(=O)[C@@H](CO)NC(=O)CNC1=O [Compound R4] ({Octanoyl(7-Me)}-[dS][dY][dW][dOrn][Orn]G[dOrn]WTIG[dS]G; ester 9-C; N-terminus assumed)	2 to 4
CC[C@H](C)[C@H](NC(=O)[C@@H](NC(=O)[C@H](Cc1c[nH]c2ccccc12)NC(=O)[C@@H](CCCN)NC(=O)CNC(=O)[C@H](CCCN)NC(=O)[C@@H](CCCN)NC(=O)[C@@H](Cc1c[nH]c2ccccc12)NC(=O)[C@@H](Cc1ccc(O)cc1)NC(=O)[C@@H](C)NC(=O)CCCCCC(C)C)[C@@H](C)O)C(=O)N[C@@H](CC(N)=O)C(=O)NCC(=O)NCC(N)=O [Ala1 (D-Ser→D-Ala), FA-aywoOGoWTINGG-CONH2] ({Octanoyl(7-Me)}-[dA][dY][dW][dOrn][Orn]G[dOrn]WTINGG-NH2)	4 to 8
CC[C@H](C)[C@H](NC(=O)[C@@H](NC(=O)[C@H](Cc1c[nH]c2ccccc12)NC(=O)[C@@H](C)NC(=O)CNC(=O)[C@H](CCCN)NC(=O)[C@@H](CCCN)NC(=O)[C@@H](Cc1c[nH]c2ccccc12)NC(=O)[C@@H](Cc1ccc(O)cc1)NC(=O)[C@@H](CO)NC(=O)CCCCCC(C)C)[C@@H](C)O)C(=O)N[C@@H](CC(N)=O)C(=O)NCC(=O)NCC(N)=O [Ala7 (D-Orn→D-Ala), FA-sywoOGaWTINGG-CONH2] ({Octanoyl(7-Me)}-[dS][dY][dW][dOrn][Orn]G[dA]WTINGG-NH2)	>64
CC(C)CCCCCC(=O)N[C@H](CO)C(=O)N[C@H](Cc1ccc(O)cc1)C(=O)N[C@H](Cc1c[nH]c2ccccc12)C(=O)N[C@H](CCCN)C(=O)N[C@@H](CCCN)C(=O)NCC(=O)N[C@H](CCCN)C(=O)N[C@@H](Cc1c[nH]c2ccccc12)C(=O)N[C@H](C(=O)N[C@@H](C)C(=O)N[C@@H](CC(N)=O)C(=O)NCC(=O)NCC(N)=O)[C@@H](C)O [Ala10 (Ile→Ala), FA-sywoOGoWTANGG-CONH2] ({Octanoyl(7-Me)}-[dS][dY][dW][dOrn][Orn]G[dOrn]WTANGG-NH2)	16 (≈ 10.1 µM)
CC[C@H](C)[C@H](NC(=O)[C@@H](NC(=O)[C@H](Cc1c[nH]c2ccccc12)NC(=O)[C@@H](CCCN)NC(=O)CNC(=O)[C@H](CCCN)NC(=O)[C@@H](C)NC(=O)[C@@H](Cc1c[nH]c2ccccc12)NC(=O)[C@@H](Cc1ccc(O)cc1)NC(=O)[C@@H](CO)NC(=O)CCCCCC(C)C)[C@@H](C)O)C(=O)N[C@@H](CC(N)=O)C(=O)NCC(=O)NCC(N)=O [Ala4 (D-Orn→D-Ala), FA-sywaOGoWTINGG-CONH2] ({Octanoyl(7-Me)}-[dS][dY][dW][dA][Orn]G[dOrn]WTINGG-NH2)	32 (≈ 20.3 µM)
CCC(C)CCC(=O)N[C@H](CO)C(=O)N[C@H](Cc1ccc(O)cc1)C(=O)N[C@H](Cc1c[nH]c2ccccc12)C(=O)N[C@H](CCCN)C(=O)N[C@@H](CCCN)C(=O)NCC(=O)N[C@H](CCCN)C(=O)N[C@@H](Cc1c[nH]c2ccccc12)C(=O)N[C@@H]1C(=O)N[C@@H]([C@@H](C)CC)C(=O)NCC(=O)N[C@@H](CO)C(=O)NCC(=O)O[C@@H]1C (stereo partly drawn) [Compound R1] ({Hexanoyl(4ξ-Me)}-[dS][dY][dW][dOrn][Orn]G[dOrn]WTIGSG; ester 9-C; N-terminus assumed)	2 (≈ 1.29 µM)
CC[C@H](C)[C@H](NC(=O)[C@@H](NC(=O)[C@H](Cc1c[nH]c2ccccc12)NC(=O)[C@@H](CCCN)NC(=O)CNC(=O)[C@H](CCCN)NC(=O)[C@@H](CCCN)NC(=O)[C@@H](Cc1c[nH]c2ccccc12)NC(=O)[C@@H](Cc1ccc(O)cc1)NC(=O)[C@@H](CO)NC(=O)CCCCCC(C)C)[C@@H](C)O)C(=O)N[C@@H](CC(N)=O)C(=O)N[C@@H](C)C(=O)NCC(N)=O [Ala12 (Gly→Ala), FA-sywoOGoWTINAG-CONH2] ({Octanoyl(7-Me)}-[dS][dY][dW][dOrn][Orn]G[dOrn]WTINAG-NH2)	4 (≈ 2.45 µM)

Continued, values first:

Minimum inhibitory concentration (MIC) [µg/mL]	SMILES
4 (≈ 2.54 µM)	C=CCOC(=O)NC[C@H](NC(=O)[C@H](Cc1c[nH]c2ccccc12)NC(=O)[C@@H](CCCN)NC(=O)CNC(=O)[C@H](CCCN)NC(=O)[C@@H](CCCN)NC(=O)[C@@H](Cc1c[nH]c2ccccc12)NC(=O)[C@@H](Cc1ccc(O)cc1)NC(=O)[C@@H](CO)NC(=O)CCCCCC(C)C)C(=O)N[C@H](C(=O)N[C@@H](CC(N)=O)C(N)=O)[C@@H](C)CC [ΔG12-G13-Dap(Alloc)9-isoC9] ({Octanoyl(7-Me)}-[dS][dY][dW][dOrn][Orn]G[dOrn]W[Dap](Alloc)IN-NH2)
2 (≈ 1.24 µM)	CC[C@H](C)[C@H](NC(=O)[C@H](CO)NC(=O)[C@H](Cc1c[nH]c2ccccc12)NC(=O)[C@@H](CCCN)NC(=O)CNC(=O)[C@H](CCCN)NC(=O)[C@@H](CCCN)NC(=O)[C@@H](Cc1c[nH]c2ccccc12)NC(=O)[C@@H](Cc1ccc(O)cc1)NC(=O)[C@@H](CO)NC(=O)CCCCCC(C)C)C(=O)N[C@@H](CC(N)=O)C(=O)NCC(=O)NCC(N)=O [Ser9-CONH2] ({Octanoyl(7-Me)}-[dS][dY][dW][dOrn][Orn]G[dOrn]WSINGG-NH2)
4 (≈ 2.43 µM)	CC[C@H](C)[C@H](NC(=O)[C@H](CCC(N)=O)NC(=O)[C@H](Cc1c[nH]c2ccccc12)NC(=O)[C@@H](CCCN)NC(=O)CNC(=O)[C@H](CCCN)NC(=O)[C@@H](CCCN)NC(=O)[C@@H](Cc1c[nH]c2ccccc12)NC(=O)[C@@H](Cc1ccc(O)cc1)NC(=O)[C@@H](CO)NC(=O)CCCCCC(C)C)C(=O)N[C@@H](CC(N)=O)C(=O)NCC(=O)NCC(N)=O [Gln9-CONH2] ({Octanoyl(7-Me)}-[dS][dY][dW][dOrn][Orn]G[dOrn]WQINGG-NH2)
2 (≈ 1.21 µM)	CC[C@H](C)[C@H](NC(=O)[C@@H](NC(=O)[C@H](Cc1c[nH]c2ccccc12)NC(=O)[C@@H](CCCN)NC(=O)CNC(=O)[C@H](CCCN)NC(=O)[C@@H](CCCN)NC(=O)[C@@H](Cc1c[nH]c2ccccc12)NC(=O)[C@@H](Cc1ccc(O)cc1)NC(=O)[C@@H](CO)NC(=O)CCCCCC(C)C)[C@@H](C)N=[N+]=[N-])C(=O)N[C@@H](CC(N)=O)C(=O)NCC(=O)NCC(N)=O [MeDap(N3)9-CONH2] ({Octanoyl(7-Me)}-[dS][dY][dW][dOrn][Orn]G[dOrn]W[X1]INGG-NH2)
1 to 2	C=CCOC(=O)NC[C@H](NC(=O)[C@H](Cc1c[nH]c2ccccc12)NC(=O)[C@@H](CCCN)NC(=O)CNC(=O)[C@H](CCCN)NC(=O)[C@@H](CCCN)NC(=O)[C@@H](Cc1c[nH]c2ccccc12)NC(=O)[C@@H](Cc1ccc(O)cc1)NC(=O)[C@@H](CO)NC(=O)CCCCCC(C)C)C(=O)N[C@H](C(=O)N[C@@H](CC(N)=O)C(=O)NCC(=O)NCC(N)=O)[C@@H](C)CC [Dap(Alloc)] ({Octanoyl(7-Me)}-[dS][dY][dW][dOrn][Orn]G[dOrn]W[Dap](Alloc)INGG-NH2)
4 (≈ 2.34 µM)	CC[C@H](C)[C@H](NC(=O)[C@H](Cc1c[nH]c2ccccc12)NC(=O)[C@H](Cc1c[nH]c2ccccc12)NC(=O)[C@@H](CCCN)NC(=O)CNC(=O)[C@H](CCCN)NC(=O)[C@@H](CCCN)NC(=O)[C@@H](Cc1c[nH]c2ccccc12)NC(=O)[C@@H](Cc1ccc(O)cc1)NC(=O)[C@@H](CO)NC(=O)CCCCCC(C)C)C(=O)N[C@@H](CC(N)=O)C(=O)NCC(=O)NCC(N)=O [Trp9-CONH2] ({Octanoyl(7-Me)}-[dS][dY][dW][dOrn][Orn]G[dOrn]WWINGG-NH2)
1 (≈ 0.639 µM)	CCC(C)CCC(=O)N[C@H](CO)C(=O)N[C@H](Cc1ccc(O)cc1)C(=O)N[C@H](Cc1c[nH]c2ccccc12)C(=O)N[C@H](CCCN)C(=O)N[C@@H](CCCN)C(=O)NCC(=O)N[C@H](CCCN)C(=O)N[C@@H](Cc1c[nH]c2ccccc12)C(=O)N[C@@H]1C(=O)N[C@@H]([C@@H](C)CC)C(=O)NCC(=O)N[C@@H](CO)C(=O)N[C@H](C)C(=O)O[C@@H]1C (stereo partly drawn) [Compound R7] ({Hexanoyl(4ξ-Me)}-[dS][dY][dW][dOrn][Orn]G[dOrn]WTIGS[dA]; ester 9-C; N-terminus assumed)
